Source: patent US20260124213A1, “STAPHYLOCOCCUS AUREUS PBP4 INHIBITORS AND METHOD OF USE” (UNIVERSITY OF ROCHESTER, priority 2022, published 2026)
Where “and” joins values, the source holds several entries; their conditions need not be identical. Equal values may be shown once.

Experiments:
Assay type in all cases: cell-based, Staphylococcus aureus
strain CRBΔpbp4 = experiment: microbe, parasite or virus in culture; conditions: CRBΔpbp4
S. aureus strain CRB = experiment: microbe, parasite or virus in culture; conditions: CRB
Description: Fractional Inhibitory Concentration Index (FICI). Fractional inhibitory testing was performed in checkerboard format to determine whether putative PBP4 inhibitors potentiated the antimicrobial effects of β-lactams toward S. aureus strains USA300 and CRB, as previously described (Chojacnki, et al. Journal of Antimicrobial Chemotherapy, 2003, 52, 1). To do so, in triplicate 10^5 CFU of each strain (10 μL) was added to individual wells of a microtiter plate containing 90 μL MH media. […] Plates were incubated at 37° C. for 16-20 hour and the lowest concentration of each test agent that inhibited bacterial growth alone or in combination was determined by the naked eye. The fractional inhibitory concentration (FIC) index was calculated using the formula: FIC of A (MIC of drug A in combination/MIC of drug A alone)+FIC B ([…]/MIC of drug B alone). A synergistic interaction was defined as a FICI value of less than 0.5, an additive interaction was defined as a FICI value between 0.5 and 1.0, an indifferent interaction was defined as a FICI value between 1.0 and 4.0, and an antagonistic interaction was defined as a FICI value of more than 4.0.

MRSA strain AH-1263 = experiment: Broth microdilution antibiotic potentiation; conditions: AH-1263
Summary of the method: (§1)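 MRSA grown 6 h in CAMHB, subcultured to 5×10^5 CFU/mL, then adjuvant compound added from DMSO stock. Antibiotic serially 2-fold diluted across plate in adjuvant-containing culture, antibiotic-alone as control; plates incubated at 37° C.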

MRSA strain AH-2204 = experiment: Broth microdilution antibiotic potentiation; conditions: AH-2204
Summary of the method: as §1

[1] = system: MRSA strain ATCC BAA-1556; experiment: Broth microdilution antibiotic potentiation; conditions: ATCC BAA-1556
Summary of the method: as §1

[2] = Ex. 3 compound at 60 μM (18 and 19 at 30 μM)

Structure (SMILES): O=C(Nc1ccc2[nH]c(-c3cccs3)nc2c1)c1ccco1 [Compound 1 (7729837)]
- Cmpd (putative PBP4 inhibitor) MIC, Alone (strain CRBΔpbp4): 400 µM
- Fold-decrease in ceftobiprole resistance in combination (strain CRBΔpbp4): 0
- Cmpd concentration, Combination (strain CRBΔpbp4; with ceftobiprole): 50 µM
- BPR (ceftobiprole) MIC, Combination (strain CRBΔpbp4; with putative PBP4 inhibitor): 0.25 µg/mL
- Cmpd (putative PBP4 inhibitor) MIC, Alone (S. aureus strain CRB): 200 µM
- Fold-decrease in ceftobiprole resistance in combination (S. aureus strain CRB): 2
- Cmpd concentration, Combination (S. aureus strain CRB; with ceftobiprole): 50 µM
- BPR (ceftobiprole) MIC, Combination (S. aureus strain CRB; with putative PBP4 inhibitor): 64 µg/mL
- Ampicillin MIC (MRSA strain AH-1263; [2]): 8 µg/mL
- Ampicillin MIC fold reduction (MRSA strain AH-1263; [2]): (2)
- Cefotaxime MIC (MRSA strain AH-1263; [2]): 8 µg/mL
- Cefotaxime MIC fold reduction (MRSA strain AH-1263; [2]): (4)
- Oxacillin MIC (MRSA strain AH-1263; [2]): 1 µg/mL
- Amoxicillin MIC (MRSA strain AH-1263; with Ex. 3 compound): 8 µg/mL
- Cephalothin MIC (MRSA strain AH-1263; with Ex. 3 compound): 1 µg/mL
- Cephalothin MIC fold reduction (MRSA strain AH-1263; with Ex. 3 compound): 32
- Penicillin G MIC (MRSA strain AH-1263; with Ex. 3 compound): 4 µg/mL
- Penicillin G MIC fold reduction (MRSA strain AH-1263; with Ex. 3 compound): 2
- Piperacillin MIC (MRSA strain AH-1263; with Ex. 3 compound): 8 µg/mL
- Piperacillin MIC fold reduction (MRSA strain AH-1263; with Ex. 3 compound): 2
- Ampicillin MIC (MRSA strain AH-2204; [2]): 2 µg/mL
- Cefotaxime MIC (MRSA strain AH-2204; [2]): 8 µg/mL
- Cefotaxime MIC fold reduction (MRSA strain AH-2204; [2]): (2)
- Oxacillin MIC (MRSA strain AH-2204; [2]): 0.5 µg/mL and 0.6 µg/mL
- Amoxicillin MIC (MRSA strain AH-2204; with Ex. 3 compound): 2 µg/mL
- Cephalothin MIC (MRSA strain AH-2204; with Ex. 3 compound): 0.125 µg/mL
- Cephalothin MIC fold reduction (MRSA strain AH-2204; with Ex. 3 compound): 32
- Penicillin G MIC (MRSA strain AH-2204; with Ex. 3 compound): 1 µg/mL
- Piperacillin MIC (MRSA strain AH-2204; with Ex. 3 compound): 4 µg/mL
- Ampicillin MIC [1, 2]: 8 µg/mL
- Ampicillin MIC fold reduction [1, 2]: (2)
- Cefotaxime MIC [1, 2]: 16 µg/mL
- Cefotaxime MIC fold reduction [1, 2]: (2)
- Oxacillin MIC [1, 2]: 2 µg/mL
- Amoxicillin MIC ([1]; with Ex. 3 compound): 8 µg/mL
- Cephalothin MIC ([1]; with Ex. 3 compound): 1 µg/mL
- Cephalothin MIC fold reduction ([1]; with Ex. 3 compound): 16
- Penicillin G MIC ([1]; with Ex. 3 compound): 2 µg/mL
- Piperacillin MIC ([1]; with Ex. 3 compound): 8 µg/mL
- Piperacillin MIC fold reduction ([1]; with Ex. 3 compound): 2
